From patent publication US12492173B2, “Herbicidal substituted N-tetrazolyl aryl carboxamides” (Bayer Aktiengesellschaft, priority 2019, dated 2025)

How the values were obtained:
Format in all cases: in vivo
Matricaria inodora = test: Post-emergence herbicidal action, MATIN; set-up: key: % herbicidal action vs untreated; 100 = plants died, 0 = like control
Procedure, shortened: (§1)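 Percent herbicidal effect was judged by eye against untreated controls around 3 weeks after foliar treatment, where 100% meant dead plants. Spraying took place at the one-leaf stage using wettable powder or emulsion concentrate diluted in water (600 to 800 l/ha) with added wetting agent at 0.2%.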

Pharbitis purpurea = test: Post-emergence herbicidal action, PHBPU
Procedure, shortened: as §1

Amaranthus retroflexus [1] = test: Post-emergence herbicidal action, AMARE; set-up: key: % herbicidal action vs untreated; 100 = plants died, 0 = like control; conditions: for Herbicidal action against AMARE: comparative experiment, 5 g of a.i./ha
Procedure, shortened: as §1

Amaranthus retroflexus [2] = test: Pre-emergence herbicidal action, AMARE; conditions: dosage 320 g/ha; for herbicidal activity AMARE: scored visually after 3 weeks vs untreated controls (100% = plants have died)
Procedure, shortened: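 Visual scoring after 3 weeks in the greenhouse, relative to untreated pots, gave percent activity, where 100% means dead plants and 0% equals controls. Treatment was a pre-emergence soil-surface spray of WP or EC formulations in water (600 to 800 l/ha, 0.2% wetting agent) over seeds covered in sandy loam.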

Abutilon theophrasti = test: Post-emergence herbicidal action, ABUTH; set-up: key: % herbicidal action vs untreated; 100 = plants died, 0 = like control
Procedure, shortened: as §1

Echinochloa crus-galli = test: Post-emergence herbicidal action, ECHCG; set-up: key: % herbicidal action vs untreated; 100 = plants died, 0 = like control
Procedure, shortened: as §1

Row | SMILES | herbicidal action MATIN (Matricaria inodora; Dosage 80 g/ha) | herbicidal action PHBPU (Pharbitis purpurea; Dosage 80 g/ha) | herbicidal action AMARE (Amaranthus retroflexus [1]; Dosage 80 g/ha) | herbicidal activity AMARE (Amaranthus retroflexus [2]) [%] | herbicidal action ABUTH (Abutilon theophrasti; Dosage 80 g/ha) | herbicidal action ECHCG (Echinochloa crus-galli; Dosage 80 g/ha) | herbicidal action MATIN (Matricaria inodora; post-emergence, dosage 80 g/ha) [%] | herbicidal action PHBPU (Pharbitis purpurea; post-emergence, dosage 80 g/ha) [%] | Herbicidal action against AMARE (Amaranthus retroflexus [1]; post-emergence) | herbicidal action AMARE (Amaranthus retroflexus [1]; post-emergence, dosage 80 g/ha) [%] | herbicidal action ABUTH (Abutilon theophrasti; post-emergence, dosage 80 g/ha) [%] | herbicidal action ECHCG (Echinochloa crus-galli; post-emergence, dosage 80 g/ha) [%] | Herbicidal action against MATIN (Matricaria inodora; comparative experiment, post-emergence, 5 g of a.i./ha) | herbicidal action AMARE (Amaranthus retroflexus [2]) [%]
1 | CCSCc1c(C(F)F)ccc(C(=O)Nc2nnnn2C)c1SCC [Example 1-191] | 90 | 80 | 80 | 100 | 100 | 100 |  |  |  |  |  |  |  | 
2 | CSCc1c(C(F)(F)F)ccc(C(=O)Nc2nnnn2C)c1F [Example 1-242] | 90 | 100 | 100 | 100 | 90 | 100 |  |  |  |  |  |  |  | 
3 | Cn1nnnc1NC(=O)c1ccc(C(F)(F)F)c(C[S+](C)[O-])c1F (stereo not drawn) [Example 1-243] | 100 | 100 | 90 | 100 | 90 | 100 |  |  |  |  |  |  |  | 
4 | Cn1nnnc1NC(=O)c1ccc(C(F)(F)F)c(CS(C)(=O)=O)c1F [Example 1-244] | 100 | 100 | 90 | 100 | 90 | 90 |  |  |  |  |  |  |  | 
5 | CSCc1c(C(F)(F)F)ccc(C(=O)Nc2nnnn2C)c1Cl [Example 1-296] |  |  |  | 100 |  |  | 100 | 100 | 60 | 100 | 100 | 100 |  | 
6 | Cn1nnnc1NC(=O)c1ccc(C(F)(F)F)c(CS(C)(=O)=O)c1Cl [Example 1-298] |  |  |  | 100 |  |  | 100 | 100 | 100 | 100 | 80 | 90 | 100 | 
7 | CCS(=O)(=O)Cc1c(C(F)(F)F)ccc(C(=O)Nc2nnnn2C)c1Cl [Example 1-301] | 90 | 100 | 80 | 100 | 80 | 90 |  |  |  |  |  |  |  | 
8 | C=CCSCc1c(C(F)(F)F)ccc(C(=O)Nc2nnnn2C)c1Cl [Example 1-308] |  |  |  | 100 |  |  | 100 | 100 |  | 100 | 100 | 100 |  | 
9 | CSCc1c(C(F)(F)F)ccc(C(=O)Nc2nnnn2C)c1Br [Example 1-380] |  |  |  | 100 |  |  | 90 | 90 |  | 80 | 90 | 90 |  | 
10 | Cn1nnnc1NC(=O)c1ccc(C(F)(F)F)c(C[S+](C)[O-])c1Br (stereo not drawn) [Example 1-381] |  |  |  | 100 |  |  | 90 | 100 |  | 100 | 100 | 90 |  | 
11 | Cn1nnnc1NC(=O)c1ccc(C(F)(F)F)c(CS(C)(=O)=O)c1Br [Example 1-382, 2-bromo-3-[(methylsulfonyl)methyl]-N-(1-methyl-1H-tetrazol-5-yl)-4-(trifluoromethyl)benzamide] | 100 | 100 | 100 | 100 | 100 | 90 |  |  |  |  |  |  |  | 
12 | Cn1nnnc1NC(=O)c1ccc(Cl)c(CS(C)(=O)=O)c1Cl [Example 1-561] | 100 | 100 | 100 | 100 | 90 | 100 |  |  |  |  |  |  |  | 
13 | CCn1nnnc1NC(=O)c1ccc(S(C)(=O)=O)c(CS(C)(=O)=O)c1C [Example 2-39] | 80 | 90 | 100 |  | 90 | 90 |  |  |  |  |  |  |  | 100
14 | CCn1nnnc1NC(=O)c1ccc(C(F)F)c(CSC)c1C [Example 2-107] | 90 | 90 | 90 | 100 | 90 | 90 |  |  |  |  |  |  |  | 
